From patent US7465722B2, “Biphenyl vasopressin agonists” (Wyeth, priority 2001, dated 2008)

Assays:
Vasopressin V2 = molecular target: T1, Vasopressin V2 (Rattus norvegicus, UniProt Q00788); assay: Vasopressin V2 agonist effects of test compounds in normal conscious water-loaded rats; type: in vivo; conditions: oral dose of 10 mg/Kg, urine collected for four hours, Sprague-Dawley (CD) rats; for Urine Volume (% decrease): percent decrease in urine volume vs control; for Urinary Osmolality (% increase): percent increase in osmolality vs control
T1 construct: Vasopressin V2 Agonist Effects of Test Compounds in Normal Conscious Water-Loaded Rats; from tissue; host or cells: whole animal: conscious Sprague-Dawley rats (kidney collecting ducts in vivo)
T1 sequence (Q00788 whole entry): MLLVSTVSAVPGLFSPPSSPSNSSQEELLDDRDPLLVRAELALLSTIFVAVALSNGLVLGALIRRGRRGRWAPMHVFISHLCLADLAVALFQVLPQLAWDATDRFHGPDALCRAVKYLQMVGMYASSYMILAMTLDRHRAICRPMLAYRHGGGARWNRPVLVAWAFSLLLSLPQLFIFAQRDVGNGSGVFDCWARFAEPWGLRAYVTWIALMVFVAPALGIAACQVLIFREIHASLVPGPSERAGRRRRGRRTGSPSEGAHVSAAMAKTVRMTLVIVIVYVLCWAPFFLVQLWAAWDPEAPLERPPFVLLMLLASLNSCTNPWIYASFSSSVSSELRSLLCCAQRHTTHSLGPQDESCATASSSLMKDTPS
Excerpt: Vasopressin V2 Agonist Effects of Test Compounds in Normal Conscious Water-Loaded Rats
Male or female normotensive Sprague-Dawley rats (Charles River Laboratories, Inc., Kingston, N.Y.) of 350-500 g body weight were supplied with standard rodent diet (Purina Rodent Lab. Chow 5001) and water ad libitum. On the day of test, rats were placed individually into metabolic cages equipped with devices to separate the feces from the urine and containers for collection of urine. A test compound or a reference agent was given at an oral dose of 10 mg/Kg in a volume of 10 mL/Kg. The vehicle used was 2.5% preboiled corn starch in 20% dimethylsulfoxide (DMSO). Thirty minutes after dosing the test compound, rats were gavaged with water at 30 mL/Kg into the stomach using a feeding needle. During the test, rats were not provided with water or food. Urine was collected for four hours after dosing of the test compound. At the end of four hours, urine volume was measured. Urinary osmolality was determined using a Fiske One-Ten Osmometer (Fiske Associates, Norwood, Mass., 02062) or an Advanced CRYOMATIC Osmometer, Model 3C2 (Advanced Instruments, Norwood, Mass.). Determinations of Na^+, K^+ and Cl^− ion were carried out using ion specific electrodes in a Beckman SYNCHRON ELISE Electrolyte System analyzer. The urinary osmolality should increase proportionally. In the screening test, two rats were used for each compound. If the difference in the urine volume of the two rats was greater than 50%, a third rat was used.

CN1c2ccccc2CN(C(=O)c2ccc(-c3ccccc3)cc2)c2ccccc21 [Example 7, [1,1′-Biphenyl]-4-yl-(5-methyl-5,11-dihydro-10H-dibenzo[b,e][1,4]diazepin-10-yl)methanone]
melting point: 198 to 201 °C | Urine Volume (% decrease) (Vasopressin V2): 70% | Urinary Osmolality (% increase) (Vasopressin V2): 189%

CN1c2ccccc2N(C(=O)c2ccc(-c3ccccc3)cc2)Cc2cccnc21 [Example 5, [1,1′-Biphenyl]-4-yl-(11-methyl-5,11-dihydro-benzo[b]pyrido[2,3-e][1,4]diazepin-6-yl)-methanone]
melting point: 220 to 223 °C | Urine Volume (% decrease) (Vasopressin V2): 22% | Urinary Osmolality (% increase) (Vasopressin V2): 26%

O=C(c1ccc(-c2ccccc2)nc1)N1Cc2cccn2Cc2ccccc21 [Example 9, (5H,11H-Benzo[e]pyrrolo[1,2-a][1,4]diazepin-10-yl)-(6-phenyl-pyridin-3-yl)-methanone]
melting point: 171 to 174 °C | Urine Volume (% decrease) (Vasopressin V2): 62% | Urinary Osmolality (% increase) (Vasopressin V2): 156%

COc1ccccc1-c1ccc(C(=O)N2Cc3cccn3Cc3ccccc32)cc1 [Example 1, (2′-Methoxy-[1,1′-biphenyl]-4-yl)-(5H,11H-pyrrolo[2,1-c][1,4]benzodiazepin-10-yl)-methanone]
melting point: 145 to 147 °C | Urine Volume (% decrease) (Vasopressin V2): 67% | Urinary Osmolality (% increase) (Vasopressin V2): 163%

O=C(c1ccc(-c2ccccc2)cc1)N1Cc2ccccc2Nc2ccccc21 [Example 6, [1,1′-Biphenyl]-4-yl-(5,11-dihydro-10H-dibenzo[b,e][1,4]diazepin-10-yl)methanone]
melting point: 180 to 182 °C | Urine Volume (% decrease) (Vasopressin V2): 87% | Urinary Osmolality (% increase) (Vasopressin V2): 247%

O=C(c1ccc(-c2ccccc2)cc1)N1CCCCc2sccc21 [Example 8, [1,1′-Biphenyl]-4-yl-(5,6,7,8-tetrahydro-thieno[3,2-b]azepin-4-yl)-methanone]
melting point: 164 to 166 °C | Urine Volume (% decrease) (Vasopressin V2): 35% | Urinary Osmolality (% increase) (Vasopressin V2): 73%

O=C(c1ccc(-c2ccccc2)cc1)N1Cc2cccnc2Nc2ccccc21 [Example 4, [1,1′-Biphenyl]-4-yl-(5,11-dihydro-benzo[b]pyrido[2,3-e][1,4]diazepin-6-yl)-methanone]
melting point: 175 to 177 °C | Urine Volume (% decrease) (Vasopressin V2): 56% | Urinary Osmolality (% increase) (Vasopressin V2): 151%

COc1ccc(-c2ccc(C(=O)N3Cc4cccn4Cc4ccccc43)cc2)cc1 [Example 3, (10,11-Dihydro-5H-pyrrolo[2,1-c][1,4]benzodiazepin-10-yl)-(4′-methoxy[1,1′-biphenyl]-4-yl)-methanone]
melting point: 187 to 189 °C | Urine Volume (% decrease) (Vasopressin V2): 18% | Urinary Osmolality (% increase) (Vasopressin V2): 78%

COc1ccc(-c2ccc(C(=O)N3Cc4cccn4Cc4ccccc43)c(C)c2)cc1 [Example 10, (5H,11H-Benzo[e]pyrrolo[1,2-a][1,4]diazepin-10-yl)-(4′-methoxy-3-methyl-[1,1′-biphenyl]-4-yl)-methanone]
Urine Volume (% decrease) (Vasopressin V2): 60% | Urinary Osmolality (% increase) (Vasopressin V2): 234%

Cc1cccc(-c2ccc(C(=O)N3Cc4cccn4Cc4ccccc43)cc2)c1 [Example 2, (10,11-Dihydro-5H-pyrrolo[2,1-c][1,4]benzodiazepin-10-yl)-(3′-methyl-[1,1′-biphenyl]-4-yl)-methanone]
melting point: 128 to 130 °C | Urine Volume (% decrease) (Vasopressin V2): 27% | Urinary Osmolality (% increase) (Vasopressin V2): 33%
